# Reference: patent publication US10881709B2, “Immune system modulators and compositions” (Canimguide Therapeutics AB, priority 2015, dated 2021)
# Peptide text beside a SMILES is read from it.
# Experiments:
# [1] = tested on: spontaneous canine tumours; test: Intra-tumoral treatment of spontaneous tumours in dogs; type: in vivo; settings: single dog
# Procedure: Seventeen spontaneous canine tumours, of variable histology have been treated by intra-tumoral injection of 40 nmol P28R in 200 microliters. The tumours were resected 3-5 days later, immediately snap frozen and stored at −80° C. until further processed. A detailed description of treatment of the tumors is provided below (see Examples 50-60). In these examples, 15 control dogs with untreated tumours (5 snap frozen and 10 FFPE) were also examined.
# A summary is provided for 7 dogs with treated mammary tumours and 5 untreated control dogs (see FIG. 88). Tumour cells (881 for treated dogs, 882 for untreated control dogs) and lymphocytes (883 for both treated dogs and untreated control dogs) were counted at 400× magnification. The ratio between these cells was used as a measure on the inflammatory infiltrate (FIG. 88). The reproducibility and the influence of tumour heterogeneity on cell counts were evaluated by counting several areas from each tumour section.
# The therapeutic efficacy was evaluated as the presence of an inflammatory infiltrate and the occurrence of tumour cell regressive changes. As migration of effector cells close to tumour cells is one important, but often inhibited function of these cells, the effect of P28R was specifically evaluated as the presence of inflammatory cells infiltrating into the tumour cell areas close to the tumour cells. […]
# [2] = Toxicological study and observation of side effects in dogs; type: in vivo, dog; settings: 200 nM in 1 mL subcutaneously and 40 nM in 200 microliters intra-tumourally
# Procedure: So far nine dogs have been treated with P28R in accordance with some embodiments herein, 4 in the toxicological study (CiToxLab, Denmark) with 200 nM administered in 1 mL subcutaneously and 5 dogs in the treatment study reported here with 40 nM in 200 microliters intra tumourally.
# More than 20 dogs have been treated with P28R, including 4 in the toxicological study (CiToxLab®, Denmark) with 200 nM administered in 1 mL subcutaneously and 17 dogs in the treatment study reported here with 40 nM in 200 microliters intra-tumourally.
# [3] = Toxicological aspects of P28R in dogs (systemic side effects); type: in vivo, dog; settings: 21 dogs: 4 with 200 nM in 1 mL subcutaneously, 17 with 40 nM in 200 microliters intra-tumourally
# Procedure: Twenty-one dogs have been treated with P28R, 4 in the toxicological study (CiToxLab®, Denmark) with 200 nM administered in 1 mL subcutaneously and 17 dogs in the treatment study reported here with 40 nM in 200 microliters intra-tumourally.
structure (smiles),measurement,setting,value
CC(C)C[C@H](NC(=O)[C@H](CO)NC(=O)[C@H](CC(C)C)NC(=O)[C@H](CCCCN)NC(=O)[C@@H](NC(=O)[C@H](Cc1ccccc1)NC(=O)[C@H](Cc1ccccc1)NC(=O)[C@@H](NC(=O)[C@H](CC(=O)O)NC(=O)[C@H](CC(C)C)NC(=O)[C@H](CCCCN)NC(=O)[C@@H](N)CCCCN)[C@@H](C)O)C(C)C)C(=O)N[C@@H](Cc1ccccc1)C(=O)N[C@H](C(=O)N[C@@H](CCC(=O)O)C(=O)N[C@@H](CCCNC(=N)N)C(=O)O)[C@@H](C)O [P28R] (H-KKLDTFFVKLSLFTER-OH; N-terminus and C-terminus assumed),clinical observations after injection until resection,[1],No systemic adverse events were observed
same,systemic side effects,[2],None of these dogs showed any systemic side effects
same,systemic side effects,[3],None of these dogs showed any systemic side effects
